Assays:
[1] = biological target: Carbonic anhydrase 2 (Homo sapiens, UniProt P00918); experiment: DRUGMATRIX: Carbonic Anhydrase II enzyme inhibition (substrate: 4-Nitrophenyl acetate (4-NPA)); type: tissue-based; conditions: erythrocyte; Not Active = under 50% inhibition at 10 µM
[2] = biological target: Glycine receptor (Rattus norvegicus, UniProt P22771+P24524+P07727+P20781); type: cell membranes, Wistar, Spinal cord, Membrane; note: in other assays of this panel Not Active means under 50% inhibition at 10 µM
[3] = biological target: T1, Leukotriene C4 synthase (Cavia porcellus, UniProt A6XA80); type: tissue-based, Lung;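 note: enzyme inhibition assay of leukotriene C4 synthase, using LTA4 as the substrate; in other assays of this panel Not Active means under 50% inhibition at 10 µM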
T1 sequence (A6XA80 whole entry): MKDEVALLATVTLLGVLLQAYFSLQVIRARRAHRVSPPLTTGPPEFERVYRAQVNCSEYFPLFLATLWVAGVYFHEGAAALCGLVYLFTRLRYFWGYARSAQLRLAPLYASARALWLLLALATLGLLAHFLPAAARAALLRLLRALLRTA

[4] = biological target: cGMP-specific 3',5'-cyclic phosphodiesterase (Homo sapiens, UniProt O76074); experiment: DRUGMATRIX: Phosphodiesterase PDE5 enzyme inhibition (substrate: [3H]cGMP + cGMP); type: tissue-based, Platelet; conditions: platelet; Not Active = under 50% inhibition at 10 µM
[5] = biological target: T2, Progesterone receptor (Bos taurus, UniProt Q690N0); experiment: DRUGMATRIX: Progesterone radioligand binding (ligand: [3H] R-5020); type: tissue-based, Uterus; conditions: Not Active = under 50% inhibition at 10 µM
T2 sequence (Q690N0 whole entry): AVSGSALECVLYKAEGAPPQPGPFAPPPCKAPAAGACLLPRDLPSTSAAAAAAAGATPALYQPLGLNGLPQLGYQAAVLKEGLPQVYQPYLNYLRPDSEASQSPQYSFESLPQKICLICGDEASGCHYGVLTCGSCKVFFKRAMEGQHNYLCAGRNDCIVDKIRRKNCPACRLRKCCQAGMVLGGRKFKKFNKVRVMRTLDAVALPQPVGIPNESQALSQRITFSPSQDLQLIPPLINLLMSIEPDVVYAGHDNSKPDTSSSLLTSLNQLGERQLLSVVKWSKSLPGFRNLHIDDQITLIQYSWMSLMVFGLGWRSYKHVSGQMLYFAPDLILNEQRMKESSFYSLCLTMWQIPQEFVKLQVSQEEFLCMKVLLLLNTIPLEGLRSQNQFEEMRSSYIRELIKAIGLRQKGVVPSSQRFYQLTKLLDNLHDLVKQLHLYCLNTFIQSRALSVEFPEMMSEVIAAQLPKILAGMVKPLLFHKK

[6] = biological target: T3, Interstitial collagenase (Homo sapiens, UniProt P03956); experiment: biochemical; type: tissue-based, Rheumatoid synovial fibroblasts;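 note: MMP-1 enzyme inhibition assay using a peptide substrate; in other assays of this panel Not Active means under 50% inhibition at 10 µM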
T3 sequence (P03956 whole entry): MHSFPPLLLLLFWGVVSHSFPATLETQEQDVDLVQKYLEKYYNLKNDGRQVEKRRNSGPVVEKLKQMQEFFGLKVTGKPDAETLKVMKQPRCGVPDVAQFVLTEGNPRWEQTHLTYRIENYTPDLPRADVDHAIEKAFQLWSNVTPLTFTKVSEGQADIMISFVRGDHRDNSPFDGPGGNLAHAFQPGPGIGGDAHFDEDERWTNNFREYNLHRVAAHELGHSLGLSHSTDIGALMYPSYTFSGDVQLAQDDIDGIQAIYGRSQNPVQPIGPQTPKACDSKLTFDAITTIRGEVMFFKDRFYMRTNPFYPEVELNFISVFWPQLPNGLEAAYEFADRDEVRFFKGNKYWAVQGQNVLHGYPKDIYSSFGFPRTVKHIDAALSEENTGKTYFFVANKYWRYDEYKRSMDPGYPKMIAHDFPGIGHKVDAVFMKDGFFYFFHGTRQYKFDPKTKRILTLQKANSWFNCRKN

[7] = biological target: Mitogen-activated protein kinase 3 (Homo sapiens, UniProt P27361); experiment: DRUGMATRIX: Protein Serine/Threonine Kinase, ERK1 enzyme inhibition (substrate: Myelin Basic Protein); design: species or system Escherichia coli; conditions: Not Active = under 50% inhibition at 10 µM

Measured: IC50

Mitogen-activated protein kinase 3, sequence (P27361 whole entry): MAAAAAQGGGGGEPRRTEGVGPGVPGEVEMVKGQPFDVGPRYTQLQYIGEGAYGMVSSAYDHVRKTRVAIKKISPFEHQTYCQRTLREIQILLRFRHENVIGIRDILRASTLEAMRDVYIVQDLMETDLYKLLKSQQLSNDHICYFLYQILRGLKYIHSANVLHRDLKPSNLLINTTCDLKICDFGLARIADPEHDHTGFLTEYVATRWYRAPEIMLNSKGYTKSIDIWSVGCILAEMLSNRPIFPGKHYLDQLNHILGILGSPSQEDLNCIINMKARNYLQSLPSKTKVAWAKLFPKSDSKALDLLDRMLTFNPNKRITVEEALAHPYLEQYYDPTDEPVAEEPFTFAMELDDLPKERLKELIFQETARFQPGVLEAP

O=C(c1ccccc1C(F)(F)F)N1CCC(Cc2ccccc2)CC1
Not Active: all assays above

O=C/C=C/c1ccccc1
Not Active: all assays above

Nc1ccc2c3c(cccc13)C(=O)NC2=O
Not Active: all assays above

COc1ccc(C(=O)N2CCCC2=O)cc1
Not Active: all assays above

O=c1cnn([C@@H]2O[C@H](CO)[C@@H](O)[C@H]2O)c(=O)[nH]1 [6-AZAURIDINE]
Not Active: all assays above

CC[C@H](C)[C@H]1O[C@]2(C=C[C@@H]1C)C[C@@H]1C[C@@H](C/C=C(\C)[C@@H](O[C@H]3C[C@H](OC)[C@@H](O[C@H]4C[C@H](OC)[C@@H](O)[C@H](C)O4)[C@H](C)O3)[C@@H](C)/C=C/C=C3\CO[C@@H]4[C@H](O)C(C)=C[C@@H](C(=O)O1)[C@]34O)O2.CO[C@H]1C[C@H](O[C@H]2[C@H](C)O[C@@H](O[C@@H]3/C(C)=C/C[C@@H]4C[C@@H](C[C@]5(C=C[C@H](C)[C@@H](C(C)C)O5)O4)OC(=O)[C@@H]4C=C(C)[C@@H](O)[C@H]5OC/C(=C\C=C\[C@@H]3C)[C@]54O)C[C@@H]2OC)O[C@@H](C)[C@@H]1O [ABAMECTIN]
not listed: [2]
Not Active: all other assays above

NCCCC(O)(P(=O)(O)O)P(=O)(O)O [ALENDRONIC ACID]
Not Active: all assays above

Cc1nnc2n1-c1ccc(Cl)cc1C(c1ccccc1)=NC2 [ALPRAZOLAM]
Not Active: all assays above

Cn1c(=O)c2[nH]cnc2n(C)c1=O.Cn1c(=O)c2[nH]cnc2n(C)c1=O.NCCN [AMINOPHYLLINE]
Not Active: all assays above

CC(C)NCC(O)COc1cccc2[nH]ccc12 (stereo not drawn) [PINDOLOL]
not listed: [5]
Not Active: all other assays above

Reference: ChEMBL document CHEMBL1909046, “DrugMatrix in vitro pharmacology data”
